Experimental data reported in the NIST ThermoML archive (doi:10.1021/acs.jced.9b00484).

Assay: Boiling temperature at pressure P
Conditions: Liquid, Ebulliometric method (Recirculating still)

ClCCCl [1,2-dichloroethane]
Conditions	Boiling temperature at pressure P [°C]
60.01 kPa	67.30
66.68 kPa	70.70
73.35 kPa	73.40
80.02 kPa	76.30
86.69 kPa	78.90
101.35 kPa	84.10
